Assay results published in patent publication US20030086873A1, “Myocardial imaging agent and preparation method thereof” (priority 2001, published 2003).
Blank lines part the entries; values can stand above or below the compound they belong to.

Columns and labels:
[1] = Dynamic SPECT imaging and biological distribution in dogs after intravenous injection; assay type: in vivo; conditions: for Heart biological distribution / Kidneys biological distribution / Liver biological distribution / Lungs biological distribution: i.v.
Method: Dogs were intravenously injected with [^99mTc(CO)3(MIBI)3]^+ or [^99mTc(MIBI)6][…]at dose of […]. Immediately following injection, dynamic photography for up to 120 min was performed using a Toshiba GCA 7200A two-probe SPECT and a low energy parallel aperture regular collimator. Time—radioactivity curves were also collected for the heart, liver, lungs, and kidneys. Target/non-target radioactivity ratios were calculated, and fall body imaging was performed separately at different times. The biological distributions of the imaging agents in the body were analyzed. Vein blood samples were collected separately at different times, and the dynamics of the blood clearance was analyzed. Flat myocardial imaging was conducted separately at different times, with myocardial tomographic imaging at 120 minutes post injection.

[2] = Biological distribution in the bodies of Kunming mice after caudal vein injection; assay type: in vivo
Method: The complexes [^99mTc(CO)3(OH2)3]^+ and [^99mTc(CO)3(MIBI)3]^+ prepared in Example 1 were separately injected in the caudal vein of Kunming mice. The experiment was conducted on three mice within each time period, and the injection's activity was 925 KBq. The radioactivity of individual organs's tissue was measured at 5, 15, 30, and 60 minutes after the injection, and the results are represented by radioactive uptake rate per gram of tissue.
The results of the distribution of [^99mTc(CO)3(OH2)3]^+ in the mice's bodies are included in Tables 2; the results for [^99mTc(CO)3(MIBI)3]^+ are presented in Table 3. The value “% ID/g” is the percentage of the injection's total radioactivity that each gram of tissue accounts for i.e., the radioactive uptake rate per gram of tissue, with ID standing for “injected dose.”

Target/Non-Target Uptake Ratio Heart/Kidneys ([1]; 2 Minutes): 0.39
Target/Non-Target Uptake Ratio Heart/Liver ([1]; 2 Minutes): 0.83
Target/Non-Target Uptake Ratio Heart/Lungs ([1]; 2 Minutes): 2.35
Target/Non-Target Uptake Ratio Heart/Kidneys ([1]; 5 Minutes): 0.48
Target/Non-Target Uptake Ratio Heart/Liver ([1]; 5 Minutes): 0.83
Target/Non-Target Uptake Ratio Heart/Lungs ([1]; 5 Minutes): 2.48
Target/Non-Target Uptake Ratio Heart/Kidneys ([1]; 10 Minutes): 0.59
Target/Non-Target Uptake Ratio Heart/Liver ([1]; 10 Minutes): 0.77
Target/Non-Target Uptake Ratio Heart/Lungs ([1]; 10 Minutes): 2.66
Target/Non-Target Uptake Ratio Heart/Kidneys ([1]; 20 Minutes): 0.45
Target/Non-Target Uptake Ratio Heart/Liver ([1]; 20 Minutes): 0.85
Target/Non-Target Uptake Ratio Heart/Lungs ([1]; 20 Minutes): 2.8
Target/Non-Target Uptake Ratio Heart/Kidneys ([1]; 30 Minutes): 0.43
Target/Non-Target Uptake Ratio Heart/Liver ([1]; 30 Minutes): 0.86
Target/Non-Target Uptake Ratio Heart/Lungs ([1]; 30 Minutes): 2.68
Target/Non-Target Uptake Ratio Heart/Kidneys ([1]; 40 Minutes): 0.43
Target/Non-Target Uptake Ratio Heart/Liver ([1]; 40 Minutes): 0.87
Target/Non-Target Uptake Ratio Heart/Lungs ([1]; 40 Minutes): 2.7
Target/Non-Target Uptake Ratio Heart/Kidneys ([1]; 60 Minutes): 0.43
Target/Non-Target Uptake Ratio Heart/Liver ([1]; 60 Minutes): 0.84
Target/Non-Target Uptake Ratio Heart/Lungs ([1]; 60 Minutes): 2.84
Target/Non-Target Uptake Ratio Heart/Kidneys ([1]; 90 Minutes): 0.46
Target/Non-Target Uptake Ratio Heart/Liver ([1]; 90 Minutes): 0.8
Target/Non-Target Uptake Ratio Heart/Lungs ([1]; 90 Minutes): 2.84
Target/Non-Target Uptake Ratio Heart/Kidneys ([1]; 120 Minutes): 0.45
Target/Non-Target Uptake Ratio Heart/Liver ([1]; 120 Minutes): 0.8
Target/Non-Target Uptake Ratio Heart/Lungs ([1]; 120 Minutes): 2.73
Heart biological distribution ([1]; 20 Minutes): 3.2 % ID/g
Kidneys biological distribution ([1]; 20 Minutes): 14.3 % ID/g
Liver biological distribution ([1]; 20 Minutes): 21.0 % ID/g
Lungs biological distribution ([1]; 20 Minutes): 6.3 % ID/g
Heart biological distribution ([1]; 30 Minutes): 3.5 % ID/g
Kidneys biological distribution ([1]; 30 Minutes): 3.2 % ID/g
Liver biological distribution ([1]; 30 Minutes): 10.3 % ID/g
Lungs biological distribution ([1]; 30 Minutes): 6.5 % ID/g
Heart biological distribution ([1]; 40 Minutes): 2.9 % ID/g
Kidneys biological distribution ([1]; 40 Minutes): 12.3 % ID/g
Liver biological distribution ([1]; 40 Minutes): 24.4 % ID/g
Lungs biological distribution ([1]; 40 Minutes): 6.3 % ID/g
Heart biological distribution ([1]; 60 Minutes): 3.3 % ID/g
Kidneys biological distribution ([1]; 60 Minutes): 12.7 % ID/g
Liver biological distribution ([1]; 60 Minutes): 25.1 % ID/g
Lungs biological distribution ([1]; 60 Minutes): 5.5 % ID/g
Heart biological distribution ([1]; 90 Minutes): 3.2 % ID/g
Kidneys biological distribution ([1]; 90 Minutes): 13.2 % ID/g
Liver biological distribution ([1]; 90 Minutes): 22.8 % ID/g
Lungs biological distribution ([1]; 90 Minutes): 6.2 % ID/g
Heart biological distribution ([1]; 120 Minutes): 3.5 % ID/g
Kidneys biological distribution ([1]; 120 Minutes): 12.1 % ID/g
Liver biological distribution ([1]; 120 Minutes): 25.2 % ID/g
Lungs biological distribution ([1]; 120 Minutes): 5.2 % ID/g
Liver time-radioactivity curve relative to the myocardial curve ([1]; in words): higher than the myocardial curve
Target/Non-Target Uptake Ratio Heart/Blood ([2]; 5 Minutes): 12.80
Target/Non-Target Uptake Ratio Heart/Liver ([2]; 5 Minutes): 0.94
Target/Non-Target Uptake Ratio Heart/Lungs ([2]; 5 Minutes): 2.87
Target/Non-Target Uptake Ratio Heart/Blood ([2]; 15 Minutes): 35.09
Target/Non-Target Uptake Ratio Heart/Liver ([2]; 15 Minutes): 0.76
Target/Non-Target Uptake Ratio Heart/Lungs ([2]; 15 Minutes): 6.08
Target/Non-Target Uptake Ratio Heart/Blood ([2]; 30 Minutes): 89.04
Target/Non-Target Uptake Ratio Heart/Liver ([2]; 30 Minutes): 0.90
Target/Non-Target Uptake Ratio Heart/Lungs ([2]; 30 Minutes): 9.07
Target/Non-Target Uptake Ratio Heart/Blood ([2]; 60 Minutes): 134.15
Target/Non-Target Uptake Ratio Heart/Liver ([2]; 60 Minutes): 1.04
Target/Non-Target Uptake Ratio Heart/Lungs ([2]; 60 Minutes): 12.25
Compound: [C-]#[N+]CC(C)(C)OC.[C-]#[N+]CC(C)(C)OC.[C-]#[N+]CC(C)(C)OC.[C-]#[N+]CC(C)(C)OC.[C-]#[N+]CC(C)(C)OC.[C-]#[N+]CC(C)(C)OC.[Tc] [[^99mTc(MIBI)6]^+, reference compound]

Blood radioactive uptake per gram of tissue ([2]; 5 Minutes after injection): 9.27 ± 1.13 % ID/g
Bones radioactive uptake per gram of tissue ([2]; 5 Minutes after injection): 2.82 ± 0.95 % ID/g
Brain radioactive uptake per gram of tissue ([2]; 5 Minutes after injection): 0.31 ± 0.09 % ID/g
Heart radioactive uptake per gram of tissue ([2]; 5 Minutes after injection): 2.68 ± 0.88 % ID/g
Kidneys radioactive uptake per gram of tissue ([2]; 5 Minutes after injection): 18.29 ± 4.22 % ID/g
Liver radioactive uptake per gram of tissue ([2]; 5 Minutes after injection): 10.33 ± 0.82 % ID/g
Lungs radioactive uptake per gram of tissue ([2]; 5 Minutes after injection): 6.53 ± 1.41 % ID/g
Muscles radioactive uptake per gram of tissue ([2]; 5 Minutes after injection): 1.47 ± 0.37 % ID/g
Spleen radioactive uptake per gram of tissue ([2]; 5 Minutes after injection): 2.02 ± 1.02 % ID/g
Blood radioactive uptake per gram of tissue ([2]; 15 Minutes after injection): 6.04 ± 0.73 % ID/g
Bones radioactive uptake per gram of tissue ([2]; 15 Minutes after injection): 1.68 ± 0.22 % ID/g
Brain radioactive uptake per gram of tissue ([2]; 15 Minutes after injection): 0.27 ± 0.03 % ID/g
Heart radioactive uptake per gram of tissue ([2]; 15 Minutes after injection): 2.39 ± 0.66 % ID/g
Kidneys radioactive uptake per gram of tissue ([2]; 15 Minutes after injection): 14.25 ± 1.78 % ID/g
Liver radioactive uptake per gram of tissue ([2]; 15 Minutes after injection): 11.95 ± 0.66 % ID/g
Lungs radioactive uptake per gram of tissue ([2]; 15 Minutes after injection): 5.38 ± 0.76 % ID/g
Muscles radioactive uptake per gram of tissue ([2]; 15 Minutes after injection): 1.46 ± 0.48 % ID/g
Spleen radioactive uptake per gram of tissue ([2]; 15 Minutes after injection): 2.38 ± 0.37 % ID/g
Blood radioactive uptake per gram of tissue ([2]; 30 Minutes after injection): 5.79 ± 0.66 % ID/g
Bones radioactive uptake per gram of tissue ([2]; 30 Minutes after injection): 2.38 ± 0.54 % ID/g
Brain radioactive uptake per gram of tissue ([2]; 30 Minutes after injection): 0.29 ± 0.06 % ID/g
Heart radioactive uptake per gram of tissue ([2]; 30 Minutes after injection): 2.39 ± 0.56 % ID/g
Kidneys radioactive uptake per gram of tissue ([2]; 30 Minutes after injection): 13.88 ± 1.02 % ID/g
Liver radioactive uptake per gram of tissue ([2]; 30 Minutes after injection): 10.83 ± 1.68 % ID/g
Lungs radioactive uptake per gram of tissue ([2]; 30 Minutes after injection): 5.37 ± 0.78 % ID/g
Muscles radioactive uptake per gram of tissue ([2]; 30 Minutes after injection): 1.66 ± 0.61 % ID/g
Spleen radioactive uptake per gram of tissue ([2]; 30 Minutes after injection): 2.94 ± 0.69 % ID/g
Blood radioactive uptake per gram of tissue ([2]; 60 Minutes after injection): 4.50 ± 0.72 % ID/g
Bones radioactive uptake per gram of tissue ([2]; 60 Minutes after injection): 1.65 ± 0.12 % ID/g
Brain radioactive uptake per gram of tissue ([2]; 60 Minutes after injection): 0.22 ± 0.03 % ID/g
Heart radioactive uptake per gram of tissue ([2]; 60 Minutes after injection): 2.08 ± 0.31 % ID/g
Kidneys radioactive uptake per gram of tissue ([2]; 60 Minutes after injection): 12.28 ± 2.32 % ID/g
Liver radioactive uptake per gram of tissue ([2]; 60 Minutes after injection): 10.73 ± 0.90 % ID/g
Lungs radioactive uptake per gram of tissue ([2]; 60 Minutes after injection): 5.19 ± 1.18 % ID/g
Muscles radioactive uptake per gram of tissue ([2]; 60 Minutes after injection): 1.37 ± 0.80 % ID/g
Spleen radioactive uptake per gram of tissue ([2]; 60 Minutes after injection): 3.20 ± 0.80 % ID/g
Specific concentration in tissues / heart ([2]; in words): no specific concentration
Radioactive retention ([2]; within 60 minutes, in words): good radioactive retention
Compound: [^99mTc(CO)3(OH2)3]^+ [reference compound]
